Results from ChEMBL document CHEMBL5728971, “Small molecule inhibitors of lactate dehydrogenase and methods of use thereof” (2022).

assay: Biochemical Assay: Test compounds were placed in a Greiner Bio-One (Monroe, N.C.) 1536-well black solid bottom assay plate. 200 millimolar (mM) Tris HCl, pH 7.4, 100 micromolar (μM) EDTA and 0.01% TWEEN-20™, final concentration, was used as the assay buffer. The LDHA reagent was 2 nanomolar (nM) Human LDHA (Meridian Life Science, Inc., Memphis, Tenn.), final concentration, in assay buffer.

| Compound | IC50 |
| --- | --- |
| NS(=O)(=O)c1ccc(Cc2c(-c3cccc(-c4ccccc4)c3)nn(-c3nc(C(=O)O)cs3)c2C2(C(F)(F)F)CC2)cc1 | in the range around 29 µM |
| NS(=O)(=O)c1ccc(Cc2c(-c3cccc(-c4ccccc4)c3)nn(-c3nc(C(=O)O)cs3)c2CC2CC2)cc1F | < 0.1 µM |
| NS(=O)(=O)c1ccc(Cc2c(-c3cccc(-c4ccccc4)c3)nn(-c3nc(C(=O)O)cs3)c2CC2CC2)c(F)c1 | < 0.1 µM |
| NS(=O)(=O)c1ccc(Cc2c(-c3cccc(-c4ccccc4)c3)nn(-c3nc(C(=O)O)cs3)c2CC(F)(F)F)cc1 | in the range around 0.55 µM |
| NS(=O)(=O)c1ccc(Cc2c(-c3cccc(OC4CCCC4)c3)nn(-c3nc(C(=O)O)cs3)c2CC2CC2)cc1F | < 0.1 µM |
| NS(=O)(=O)c1ccc(Cc2c(-c3cccc(OCc4ccccc4)c3)nn(-c3nc(C(=O)O)cs3)c2CC2CC2)cc1F | < 0.1 µM |
| NS(=O)(=O)c1ccc(Cc2c(C3(C(F)(F)F)CC3)nn(-c3nc(C(=O)O)cs3)c2-c2cccc(-c3ccccc3)c2)cc1F | in the range around 29 µM |
| Cc1ccc(-c2cccc(-c3c(Cc4ccc(S(N)(=O)=O)cc4)c(CC4CC4)nn3-c3nc(C(=O)O)cs3)c2)cc1 | in the range around 29 µM |
| NS(=O)(=O)c1ccc(Cc2c(-c3cccc(OCc4ccccc4)c3)nn(-c3nc(C(=O)O)cs3)c2CC2CC2)c(F)c1 | < 0.1 µM |
| NS(=O)(=O)c1ccc(Cc2c(CC3CC3)nn(-c3nc(C(=O)O)cs3)c2-c2ccc(F)c(-c3cccc(F)c3)c2)c(F)c1 | in the range around 29 µM |
| Cc1ccc(-c2cccc(-c3nn(-c4nc(C(=O)O)cs4)c(CC4CC4)c3Cc3ccc(S(N)(=O)=O)cc3)c2)cc1 | < 0.1 µM |
| Cc1ccc(-c2cc(-c3nn(-c4nc(C(=O)O)cs4)c(CC4CC4)c3Cc3ccc(S(N)(=O)=O)cc3F)ccc2F)cc1 | < 0.1 µM |
| Cc1ccc(-c2cccc(-c3c(Cc4ccc(S(N)(=O)=O)c(F)c4)c(CC4CC4)nn3-c3nc(C(=O)O)cs3)c2)cc1 | in the range around 29 µM |
| NS(=O)(=O)c1ccc(Cc2c(-c3cccc(-c4cccc(F)c4)c3)nn(-c3nc(C(=O)O)cs3)c2C(F)(F)F)cc1 | < 0.1 µM |
| Cc1ccc(-c2cccc(-c3nn(-c4nc(C(=O)O)cs4)c(CC4CC4)c3Cc3ccc(S(N)(=O)=O)cc3F)c2)cc1 | < 0.1 µM |
| CCOC(=O)c1csc(-n2nc(CC3CC3)c(Cc3ccc(S(N)(=O)=O)c(F)c3)c2-c2ccc(F)c(-c3cccc(OC)c3)c2)n1 | > 57 µM |
| NS(=O)(=O)c1ccc(Cc2c(-c3ccc(F)c(-c4ccc(C5CC5)cc4)c3)nn(-c3nc(C(=O)O)cs3)c2CC2CC2)cc1 | < 0.1 µM |
| NS(=O)(=O)c1ccc(Cc2c(CC3CC3)nn(-c3nc(C(=O)O)cs3)c2-c2ccc(F)c(-c3ccc(C4CC4)cc3)c2)cc1 | in the range around 29 µM |
| NS(=O)(=O)c1ccc(Cc2c(CC3CC3)nn(-c3nc(C(=O)O)cs3)c2-c2cccc(-c3ccccc3)c2)cc1F | in the range around 29 µM |
| CCOC(=O)c1csc(-n2nc(CC3CC3)c(Cc3ccc(S(N)(=O)=O)c(F)c3)c2-c2ccc(F)c(-c3cccc(F)c3)c2)n1 | > 57 µM |
| COc1cccc(-c2cc(-c3c(Cc4ccc(S(N)(=O)=O)c(F)c4)c(CC4CC4)nn3-c3nc(C(=O)O)cs3)ccc2F)c1 | in the range around 29 µM |
| NS(=O)(=O)c1ccc(Cc2c(-c3cccc(OCc4ccccc4)c3)nn(-c3nc(C(=O)O)cs3)c2CC2CC2)cc1 | < 0.1 µM |

| Compound | IC50 |
| --- | --- |
| NS(=O)(=O)c1ccc(Cc2c(CC3CC3)nn(-c3nc(C(=O)O)cs3)c2-c2ccc(F)c(-c3ccc(F)cc3)c2)cc1 | in the range around 29 µM |
| NS(=O)(=O)c1ccc(Cc2c(-c3cccc(-c4ccccc4)c3)nn(-c3nc(C(=O)O)cs3)c2C2(C(F)(F)F)CC2)cc1F | in the range around 29 µM |
| CCOC(=O)c1csc(-n2nc(-c3cccc(-c4ccc(C)cc4)c3)c(Cc3ccc(S(N)(=O)=O)cc3F)c2CC2CC2)n1 | > 57 µM |
| Cc1ccc(-c2cccc(-c3c(Cc4ccc(S(N)(=O)=O)c(F)c4)c(C4CC4)nn3-c3nc(C(=O)O)cs3)c2)cc1 | in the range around 29 µM |
| COc1cccc(-c2cc(-c3nn(-c4nc(C(=O)O)cs4)c(CC4CC4)c3Cc3ccc(S(N)(=O)=O)cc3F)ccc2F)c1 | < 0.1 µM |
| NS(=O)(=O)c1ccc(Cc2c(-c3ccc(F)c(-c4ccc(F)cc4)c3)nn(-c3nc(C(=O)O)cs3)c2CC2CC2)c(F)c1 | < 0.1 µM |
| CCOC(=O)c1csc(-n2nc(-c3ccc(F)c(-c4cccc(OC)c4)c3)c(Cc3ccc(S(N)(=O)=O)c(F)c3)c2CC2CC2)n1 | in the range around 29 µM |
| COc1cccc(-c2cc(-c3nn(-c4nc(C(=O)O)cs4)c(CC4CC4)c3Cc3ccc(S(N)(=O)=O)c(F)c3)ccc2F)c1 | < 0.1 µM |
| CCOC(=O)c1csc(-n2nc(CC3CC3)c(Cc3ccc(S(N)(=O)=O)cc3F)c2-c2ccc(F)c(-c3cccc(OC)c3)c2)n1 | > 57 µM |
| Cc1ccc(-c2cc(-c3c(Cc4ccc(S(N)(=O)=O)cc4)c(CC4CC4)nn3-c3nc(C(=O)O)cs3)ccc2F)cc1 | in the range around 29 µM |
| NS(=O)(=O)c1ccc(Cc2c(CC3CC3)nn(-c3nc(C(=O)O)cs3)c2-c2ccc(F)c(-c3cccc(F)c3)c2)cc1F | in the range around 29 µM |
| CC(C)c1ccc(-c2cc(-c3c(Cc4ccc(S(N)(=O)=O)cc4)c(CC4CC4)nn3-c3nc(C(=O)O)cs3)ccc2F)cc1 | in the range around 29 µM |
| CCOC(=O)c1csc(-n2nc(-c3ccc(F)c(-c4ccc(C)cc4)c3)c(Cc3ccc(S(N)(=O)=O)c(F)c3)c2CC2CC2)n1 | in the range around 29 µM |
| CCOC(=O)c1csc(-n2nc(-c3cccc(OC4CCCC4)c3)c(Cc3ccc(S(N)(=O)=O)c(F)c3)c2CC2CC2)n1 | in the range around 29 µM |
| NS(=O)(=O)c1ccc(Cc2c(CC3CC3)nn(-c3nc(C(=O)O)cs3)c2-c2ccc(F)c(-c3ccc(F)cc3)c2)c(F)c1 | in the range around 29 µM |
| Cc1ccc(-c2cccc(-c3nn(-c4nc(C(=O)O)cs4)c(C(F)(F)F)c3Cc3ccc(S(N)(=O)=O)cc3)c2)cc1 | < 0.1 µM |
| Cc1ccc(-c2cc(-c3nn(-c4nc(C(=O)O)cs4)c(CC4CC4)c3Cc3ccc(S(N)(=O)=O)cc3)ccc2F)cc1 | < 0.1 µM |
| CCOC(=O)c1csc(-n2nc(-c3ccc(F)c(-c4cccc(F)c4)c3)c(Cc3ccc(S(N)(=O)=O)cc3F)c2CC2CC2)n1 | in the range around 29 µM |
| CCOC(=O)c1csc(-n2nc(-c3cccc(-c4ccccc4)c3)c(Cc3ccc(S(N)(=O)=O)cc3)c2C2(C(F)(F)F)CC2)n1 | > 57 µM |
| NS(=O)(=O)c1ccc(Cc2c(-c3cccc(-c4ccccc4)c3)nn(-c3nc(C(=O)O)cs3)c2C2(C(F)(F)F)CC2)c(F)c1 | in the range around 0.55 µM |
| Cc1ccc(-c2cccc(-c3nn(-c4nc(C(=O)O)cs4)c(CC4CC4)c3Cc3ccc(S(N)(=O)=O)c(F)c3)c2)cc1 | < 0.1 µM |
| CCOC(=O)c1csc(-n2nc(-c3cccc(OC4CCCC4)c3)c(Cc3ccc(S(N)(=O)=O)cc3F)c2CC2CC2)n1 | in the range around 29 µM |

| Compound | IC50 |
| --- | --- |
| CCOC(=O)c1csc(-n2nc(-c3ccc(F)c(-c4ccc(F)cc4)c3)c(Cc3ccc(S(N)(=O)=O)cc3F)c2CC2CC2)n1 | in the range around 29 µM |
| CC(C)c1ccc(-c2cc(-c3nn(-c4nc(C(=O)O)cs4)c(CC4CC4)c3Cc3ccc(S(N)(=O)=O)cc3)ccc2F)cc1 | < 0.1 µM |
| NS(=O)(=O)c1ccc(Cc2c(C3(C(F)(F)F)CC3)nn(-c3nc(C(=O)O)cs3)c2-c2cccc(-c3ccccc3)c2)cc1 | in the range around 29 µM |
| CCOC(=O)c1csc(-n2nc(-c3ccc(F)c(-c4cccc(OC)c4)c3)c(Cc3ccc(S(N)(=O)=O)cc3F)c2CC2CC2)n1 | > 57 µM |
| NS(=O)(=O)c1ccc(Cc2c(-c3cccc(OC4CCCC4)c3)nn(-c3nc(C(=O)O)cs3)c2CC2CC2)cc1 | < 0.1 µM |
| Cc1ccc(-c2cc(-c3nn(-c4nc(C(=O)O)cs4)c(CC4CC4)c3Cc3ccc(S(N)(=O)=O)c(F)c3)ccc2F)cc1 | < 0.1 µM |
| COc1cccc(-c2cccc(-c3nn(-c4nc(C(=O)O)cs4)c(C(F)(F)F)c3Cc3ccc(S(N)(=O)=O)cc3)c2)c1 | < 0.1 µM |
| NS(=O)(=O)c1ccc(Cc2c(CC3CC3)nn(-c3nc(C(=O)O)cs3)c2-c2cccc(-c3ccccc3)c2)c(F)c1 | in the range around 29 µM |
| NS(=O)(=O)c1ccc(Cc2c(CC(F)(F)F)nn(-c3nc(C(=O)O)cs3)c2-c2cccc(-c3ccccc3)c2)cc1 | in the range around 29 µM |
| Cc1ccc(-c2cc(-c3c(Cc4ccc(S(N)(=O)=O)cc4F)c(CC4CC4)nn3-c3nc(C(=O)O)cs3)ccc2F)cc1 | in the range around 29 µM |
| NS(=O)(=O)c1ccc(Cc2c(-c3ccc(F)c(-c4cccc(F)c4)c3)nn(-c3nc(C(=O)O)cs3)c2CC2CC2)c(F)c1 | < 0.1 µM |
| CCOC(=O)c1csc(-n2nc(-c3ccc(F)c(-c4cccc(F)c4)c3)c(Cc3ccc(S(N)(=O)=O)c(F)c3)c2CC2CC2)n1 | > 57 µM |
| NS(=O)(=O)c1ccc(Cc2c(-c3ccc(F)c(-c4cccc(F)c4)c3)nn(-c3nc(C(=O)O)cs3)c2CC2CC2)cc1F | < 0.1 µM |
| CCOC(=O)c1csc(-n2nc(CC3CC3)c(Cc3ccc(S(N)(=O)=O)cc3F)c2-c2ccc(F)c(-c3cccc(F)c3)c2)n1 | > 57 µM |
| NS(=O)(=O)c1ccc(Cc2c(CC3CC3)nn(-c3nc(C(=O)O)cs3)c2-c2cccc(OCc3ccccc3)c2)cc1 | in the range around 29 µM |
| Cc1ccc(-c2cc(-c3c(Cc4ccc(S(N)(=O)=O)c(F)c4)c(CC4CC4)nn3-c3nc(C(=O)O)cs3)ccc2F)cc1 | in the range around 29 µM |
| NS(=O)(=O)c1ccc(Cc2c(CC3CC3)nn(-c3nc(C(=O)O)cs3)c2-c2ccc(F)c(Br)c2)cc1 | in the range around 29 µM |
| COc1cccc(-c2cc(-c3c(Cc4ccc(S(N)(=O)=O)cc4F)c(CC4CC4)nn3-c3nc(C(=O)O)cs3)ccc2F)c1 | in the range around 29 µM |
| NS(=O)(=O)c1ccc(Cc2c(-c3ccc(F)c(-c4ccc(F)cc4)c3)nn(-c3nc(C(=O)O)cs3)c2CC2CC2)cc1 | < 0.1 µM |
| NS(=O)(=O)c1ccc(Cc2c(-c3cccc(-c4ccc(F)cc4)c3)nn(-c3nc(C(=O)O)cs3)c2C(F)(F)F)cc1 | < 0.1 µM |
| NS(=O)(=O)c1ccc(Cc2c(-c3ccc(F)c(Br)c3)nn(-c3nc(C(=O)O)cs3)c2CC2CC2)cc1 | < 0.1 µM |
| NS(=O)(=O)c1ccc(Cc2c(-c3cccc(OC4CCCC4)c3)nn(-c3nc(C(=O)O)cs3)c2CC2CC2)c(F)c1 | < 0.1 µM |
